The source of these data is paper PMC9477730, “Structures and mechanism of the plant PIN-FORMED auxin transporter” (Nature, 2022).

Data set [1] deals with T1, PIN8 (Arabidopsis thaliana, UniProt Q9LFP6).
T1 construct: full-length, tag-free; model residues 1–164 and 206–367, homodimer
T1 sequence (Q9LFP6 1-367): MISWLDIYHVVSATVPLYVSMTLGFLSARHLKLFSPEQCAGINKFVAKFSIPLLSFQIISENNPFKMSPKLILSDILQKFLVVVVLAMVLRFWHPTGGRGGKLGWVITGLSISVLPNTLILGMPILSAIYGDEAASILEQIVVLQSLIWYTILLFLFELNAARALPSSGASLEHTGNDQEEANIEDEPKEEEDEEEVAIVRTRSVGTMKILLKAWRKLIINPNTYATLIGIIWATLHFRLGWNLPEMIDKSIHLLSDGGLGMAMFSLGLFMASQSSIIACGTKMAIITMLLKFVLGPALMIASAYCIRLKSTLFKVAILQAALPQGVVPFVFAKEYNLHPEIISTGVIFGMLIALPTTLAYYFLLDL
Kind of data set: cryo-EM structure at […] Å (outward-open); apparent Kd by SSM electrophysiology competition with NPA binding current.

Data set [2] has as its target T1, PIN8. Kind of data set: cryo-EM structure at […] Å (inward-open); Ki from SSM electrophysiology on proteoliposomes. Format: biochemical.
Data set [3] deals with the molecule itself. Kind of data set: cryo-EM structure; purified tag-free PIN8 reconstituted in peptidisc; apo (2.9 Å), with 15 mM IAA (3.2 Å) and with 2 mM NPA (3.4 Å); C2 symmetry imposed, parallel C1 refinement showed no differences between the two monomers.

Turning to `O=C(O)Cc1c[nH]c2ccccc12` [IAA, Indole-3-acetic acid], the Kd in data set [1] stood at 39.9 µM.

For `O=C(O)c1ccccc1C(=O)Nc1cccc2ccccc12` [NPA, naphthylphthalamic acid], affinity in data set [2] was put at a Ki of 1.9 µM.

B1: Arabidopsis thaliana PIN8 (PIN-FORMED 8 auxin transporter) (natural protein, UniProt Q9LFP6 1-367, looked up)
chain: MISWLDIYHVVSATVPLYVSMTLGFLSARHLKLFSPEQCAGINKFVAKFSIPLLSFQIISENNPFKMSPKLILSDILQKFLVVVVLAMVLRFWHPTGGRGGKLGWVITGLSISVLPNTLILGMPILSAIYGDEAASILEQIVVLQSLIWYTILLFLFELNAARALPSSGASLEHTGNDQEEANIEDEPKEEEDEEEVAIVRTRSVGTMKILLKAWRKLIINPNTYATLIGIIWATLHFRLGWNLPEMIDKSIHLLSDGGLGMAMFSLGLFMASQSSIIACGTKMAIITMLLKFVLGPALMIASAYCIRLKSTLFKVAILQAALPQGVVPFVFAKEYNLHPEIISTGVIFGMLIALPTTLAYYFLLDL
notes: PIN8, Arabidopsis thaliana, UniProt Q9LFP6; the PIN8 gene cloned in a p423_GAL1-based plasmid; final models include residues 1-164 and 206-367 of 367 residues total; the cytosolic loop 165-205 is in the protein but not visible in the maps; also called AtPIN8; apo-PIN8; source: S. cerevisiae strain DSY-5, purified (Ni-NTA, TEV cleavage, SEC); in peptidisc or in LMNG detergent
In the case of B1, the stoichiometry N (in general, a count of units in the complex or per binding partner) in data set [3] was found to be 2.
